What was measured:
Assay in all cases: Test B pre-/postemergence plant response
Assay type in all cases: in vivo
[1] = system: corn (Zea mays)
In short: (§1)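 Seeds were sown in loam soil/sand blend and treated preemergence with compound in non-phytotoxic solvent mixture containing surfactant; postemergence sprays, same formulation, went onto plants 2 to 18 cm (1- to 4-leaf stage) in peat-based planting medium. Greenhouse 13 to 15 days, then visual rating versus untreated controls, 0 (no effect) to 100 (complete control).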

[2] = system: blackgrass (Alopecurus myosuroides)
In short: as §1

[3] = system: woolly cupgrass (Eriochloa villosa)
In short: as §1

[4] = system: Surinam grass (Brachiaria decumbens)
In short: as §1

[5] = system: velvetleaf (Abutilon theophrasti)
In short: as §1

[6] = system: soybean (Glycine max)
In short: as §1

[7] = system: Italian ryegrass (Lolium multiflorum)
In short: as §1

[8] = system: pigweed (Amaranthus retroflexus)
In short: as §1

[9] = system: johnsongrass (Sorghum halepense)
In short: as §1

[10] = system: giant foxtail (Setaria faberii)
In short: as §1

[11] = system: kochia (Kochia scoparia)
In short: as §1

[12] = system: ragweed (common ragweed, Ambrosia elatior)
In short: as §1

[13] = system: downy bromegrass (Bromus tectorum)
In short: as §1

[14] = 31 g ai/ha, postemergence, scale 0 to 100, 0 is no effect, 100 is complete control
[15] = 62 g ai/ha, postemergence, 0 is no effect, 100 is complete control, 13 to 15 days
[16] = Postemergence, 125 g ai/ha, visual rating after 13 to 15 days, scale 0 (no effect) to 100 (complete control)
[17] = Postemergence, 250 g ai/ha, scale 0 to 100 (0 no effect, 100 complete control)
[18] = 250 g ai/ha, Preemergence, 0 to 100 scale
[19] = Postemergence, 62 g ai/ha, scale 0 (no effect) to 100 (complete control), 13 to 15 days
[20] = Preemergence, 31 g ai/ha, scale 0 to 100 (0 no effect, 100 complete control)
[21] = Preemergence, 62 g ai/ha, scale 0 to 100 (0 no effect, 100 complete control)
[22] = Preemergence, 125 g ai/ha, scale 0 to 100, 0 no effect, 100 complete control

For `COCCn1c(-c2ccccc2)ncc(C(=O)C2=C(O)CCCC2=O)c1=O` [Compound 85], the “Plant response rating, Corn” value [1, 14] was 50, the “Corn plant response rating (0 to 100 scale)” value [1, 15] was 70 and the “Plant response rating, Corn” value [1, 16] was 85. The “Plant response rating, Corn” value [1, 17] was 85, the “Plant response rating, Blackgrass” value [2, 14] was 5 and the “Blackgrass plant response rating (0 to 100 scale)” value [2, 15] was 35. For the same compound, the “Plant response rating, Blackgrass” value [2, 16] was 35, the “Plant response rating, Blackgrass” value [2, 17] was 50 and the “Plant response rating, Cupgrass, Woolly” value [3, 14] was 75. For the same compound, the “Cupgrass, Woolly plant response rating (0 to 100 scale)” value [3, 15] was 85, the “Plant response rating, Cupgrass, Woolly” value [3, 16] was 90 and the “Plant response rating, Cupgrass, Woolly” value [3, 17] was 90. The “Plant response rating, Surinam Grass” value [4, 14] was 75, the “Surinam Grass plant response rating (0 to 100 scale)” value [4, 15] was 85 and the “Plant response rating, Surinam Grass” value [4, 17] was 85. The “Plant response rating, Velvetleaf” value [5, 14] was 90, the “Velvetleaf plant response rating (0 to 100 scale)” value [5, 15] was 98 and the “Plant response rating, Velvetleaf” value [5, 17] was 98. The “Plant response rating, Soybean” value [6, 14] was 80, the “Soybean plant response rating (0 to 100 scale)” value [6, 15] was 85 and the “Plant response rating, Soybean” value [6, 17] was 95. For the same compound, the “Plant response rating, Ryegrass, Italian” value [7, 14] was 0, the “Ryegrass, Italian plant response rating (0 to 100 scale)” value [7, 15] was 10 and the “Plant response rating, Ryegrass, Italian” value [7, 17] was 45. The “Plant response rating, Pigweed” value [8, 14] was 100, the “Pigweed plant response rating (0 to 100 scale)” value [8, 15] was 100 and the “Plant response rating, Pigweed” value [8, 17] was 100. The “Plant response rating, Johnsongrass” value [9, 14] was 80, the “Johnsongrass plant response rating (0 to 100 scale)” value [9, 15] was 95 and the “Plant response rating, Johnsongrass” value [9, 17] was 98. For the same compound, the “Plant response rating, Foxtail, Giant” value [10, 14] was 75, the “Foxtail, Giant plant response rating (0 to 100 scale)” value [10, 15] was 80 and the “Plant response rating, Foxtail, Giant” value [10, 17] was 98. For the same compound, the “Plant response rating, Kochia” value [11, 14] was 75, the “Kochia plant response rating (0 to 100 scale)” value [11, 15] was 85 and the “Plant response rating, Kochia” value [11, 17] was 90. For the same compound, the “Plant response rating, Ragweed” value [12, 14] was 80, the “Ragweed plant response rating (0 to 100 scale)” value [12, 15] was 85 and the “Plant response rating, Ragweed” value [12, 17] was 98. The “Plant response rating, Bromegrass, Downy” value [13, 14] was 0, the “Bromegrass, Downy plant response rating (0 to 100 scale)” value [13, 15] was 5 and the “Plant response rating, Bromegrass, Downy” value [13, 16] was 25. The “Plant response rating, Bromegrass, Downy” value [13, 17] was 30.

`Cc1cc(-n2c(-c3ccccc3)ncc(C(=O)C3=C(O)CCCC3=O)c2=O)ccc1F` [Compound 53] was tested, and the “Plant response rating, Corn” value [1, 14] was 55, the “Plant response rating, Corn” value [1, 18] was 20 and the “Plant response rating, Corn” value [1, 19] was 80. The “Plant response rating, Corn” value [1, 16] was 80, the “Plant response rating, Corn” value [1, 17] was 85 and the “Plant response rating, Corn” value [1, 20] was 0. For the same compound, the “Plant response rating, Corn” value [1, 21] was 0, the “Plant response rating, Corn” value [1, 22] was 0 and the “Plant response rating, Blackgrass” value [2, 14] was 20. For the same compound, the “Plant response rating, Blackgrass” value [2, 18] was 60, the “Plant response rating, Blackgrass” value [2, 19] was 30 and the “Plant response rating, Blackgrass” value [2, 16] was 40. The “Plant response rating, Blackgrass” value [2, 17] was 50, the “Plant response rating, Blackgrass” value [2, 20] was 0 and the “Plant response rating, Blackgrass” value [2, 21] was 5. The “Plant response rating, Blackgrass” value [2, 22] was 5, the “Plant response rating, Cupgrass, Woolly” value [3, 14] was 65 and the “Plant response rating, Cupgrass, Woolly” value [3, 18] was 95. For the same compound, the “Plant response rating, Cupgrass, Woolly” value [3, 19] was 90, the “Plant response rating, Cupgrass, Woolly” value [3, 16] was 95 and the “Plant response rating, Cupgrass, Woolly” value [3, 17] was 98. For the same compound, the “Plant response rating, Cupgrass, Woolly” value [3, 20] was 0, the “Plant response rating, Cupgrass, Woolly” value [3, 21] was 55 and the “Plant response rating, Cupgrass, Woolly” value [3, 22] was 85. The “Plant response rating, Surinam Grass” value [4, 14] was 85, the “Plant response rating, Surinam Grass” value [4, 19] was 95 and the “Plant response rating, Surinam Grass” value [4, 16] was 98. The “Plant response rating, Surinam Grass” value [4, 17] was 98, the “Plant response rating, Surinam Grass” value [4, 20] was 75 and the “Plant response rating, Surinam Grass” value [4, 21] was 85. For the same compound, the “Plant response rating, Surinam Grass” value [4, 22] was 100, the “Plant response rating, Velvetleaf” value [5, 14] was 85 and the “Plant response rating, Velvetleaf” value [5, 19] was 85. For the same compound, the “Plant response rating, Velvetleaf” value [5, 16] was 95, the “Plant response rating, Velvetleaf” value [5, 17] was 98 and the “Plant response rating, Velvetleaf” value [5, 20] was 80. The “Plant response rating, Velvetleaf” value [5, 21] was 98, the “Plant response rating, Velvetleaf” value [5, 22] was 98 and the “Plant response rating, Soybean” value [6, 14] was 90. For the same compound, the “Plant response rating, Soybean” value [6, 19] was 95, the “Plant response rating, Soybean” value [6, 16] was 95 and the “Plant response rating, Soybean” value [6, 17] was 95. For the same compound, the “Plant response rating, Soybean” value [6, 20] was 0, the “Plant response rating, Soybean” value [6, 21] was 70 and the “Plant response rating, Soybean” value [6, 22] was 80. For the same compound, the “Plant response rating, Ryegrass, Italian” value [7, 14] was 0, the “Plant response rating, Ryegrass, Italian” value [7, 19] was 5 and the “Plant response rating, Ryegrass, Italian” value [7, 16] was 40. The “Plant response rating, Ryegrass, Italian” value [7, 17] was 45, the “Plant response rating, Ryegrass, Italian” value [7, 20] was 0 and the “Plant response rating, Ryegrass, Italian” value [7, 21] was 0. The “Plant response rating, Ryegrass, Italian” value [7, 22] was 0, the “Plant response rating, Pigweed” value [8, 14] was 85 and the “Plant response rating, Pigweed” value [8, 19] was 95. The “Plant response rating, Pigweed” value [8, 16] was 100, the “Plant response rating, Pigweed” value [8, 17] was 100 and the “Plant response rating, Pigweed” value [8, 20] was 95. The “Plant response rating, Pigweed” value [8, 21] was 98, the “Plant response rating, Pigweed” value [8, 22] was 100 and the “Plant response rating, Johnsongrass” value [9, 14] was 55. For the same compound, the “Plant response rating, Johnsongrass” value [9, 18] was 75, the “Plant response rating, Johnsongrass” value [9, 19] was 95 and the “Plant response rating, Johnsongrass” value [9, 16] was 95. For the same compound, the “Plant response rating, Johnsongrass” value [9, 17] was 100, the “Plant response rating, Johnsongrass” value [9, 20] was 10 and the “Plant response rating, Johnsongrass” value [9, 21] was 55. For the same compound, the “Plant response rating, Johnsongrass” value [9, 22] was 60, the “Plant response rating, Foxtail, Giant” value [10, 14] was 80 and the “Plant response rating, Foxtail, Giant” value [10, 18] was 100. For the same compound, the “Plant response rating, Foxtail, Giant” value [10, 19] was 85, the “Plant response rating, Foxtail, Giant” value [10, 16] was 90 and the “Plant response rating, Foxtail, Giant” value [10, 17] was 95. The “Plant response rating, Foxtail, Giant” value [10, 20] was 5, the “Plant response rating, Foxtail, Giant” value [10, 21] was 85 and the “Plant response rating, Foxtail, Giant” value [10, 22] was 100. The “Plant response rating, Kochia” value [11, 14] was 45, the “Plant response rating, Kochia” value [11, 19] was 65 and the “Plant response rating, Kochia” value [11, 16] was 75. The “Plant response rating, Kochia” value [11, 17] was 80, the “Plant response rating, Ragweed” value [12, 14] was 80 and the “Plant response rating, Ragweed” value [12, 19] was 85. The “Plant response rating, Ragweed” value [12, 16] was 95, the “Plant response rating, Ragweed” value [12, 17] was 98 and the “Plant response rating, Ragweed” value [12, 20] was 65. The “Plant response rating, Ragweed” value [12, 21] was 75, the “Plant response rating, Ragweed” value [12, 22] was 85 and the “Plant response rating, Bromegrass, Downy” value [13, 14] was 35. The “Plant response rating, Bromegrass, Downy” value [13, 18] was 30, the “Plant response rating, Bromegrass, Downy” value [13, 19] was 50 and the “Plant response rating, Bromegrass, Downy” value [13, 16] was 55. The “Plant response rating, Bromegrass, Downy” value [13, 17] was 60, the “Plant response rating, Bromegrass, Downy” value [13, 20] was 0 and the “Plant response rating, Bromegrass, Downy” value [13, 21] was 0. The “Plant response rating, Bromegrass, Downy” value [13, 22] was 5.
